According to ChEMBL document CHEMBL5260810, “Inhibition of bromodomain-containing protein 9 for the prevention of epigenetically-defined drug resistance” (Bioorg Med Chem Lett, 2017):
pIC50: −log10 of the molar value.

What was measured:
[1] = Cytotoxicity against human SNU-601 cells measured after 8 days; assay type: functional, cell-based; conditions: SNU-601, 192 h
RT-4 = assay: Cytotoxicity against human RT-4 cells measured after 8 days; assay type: functional, cell-based; conditions: RT-4, 192 h
KMS-12-BM = assay: Cytotoxicity against human KMS-12-BM cells measured after 8 days; assay type: functional, cell-based; conditions: 192 h
COLO-680N = assay: Cytotoxicity against human COLO-680N cells measured after 8 days; assay type: functional, cell-based; conditions: 192 h
KALS-1 = assay: Cytotoxicity against human KALS-1 cells measured after 8 days; assay type: functional, cell-based; conditions: KALS-1, 192 h
[2] = Cytotoxicity against human NCE-G 130 cells measured after 8 days; assay type: functional, cell-based; conditions: NCE-G 130, 192 h
8505C = assay: Cytotoxicity against human 8505C cells measured after 8 days; assay type: functional, cell-based; conditions: 192 h
OVCAR-8 = assay: Cytotoxicity against human OVCAR-8 cells measured after 8 days; assay type: functional, cell-based; conditions: OVCAR-8, 192 h
HEC-1B cell line = assay: Cytotoxicity against human HEC-1B cell line measured after 8 days; assay type: functional, cell-based; conditions: 192 h
[3] = Cytotoxicity against human 4498-16820 Mel-BR1 cells measured after 8 days; assay type: functional, cell-based; conditions: 4498-16820 Mel-BR1, 192 h
[4] = Cytotoxicity against human NCE-G 44 cells measured after 8 days; assay type: functional, cell-based; conditions: NCE-G 44, 192 h
[5] = Cytotoxicity against human KPR3351 cells measured after 8 days; assay type: functional, cell-based; conditions: KPR3351, 192 h
CAPAN-1 = assay: Cytotoxicity against human CAPAN-1 cells measured after 8 days; assay type: functional, cell-based; conditions: CAPAN-1, 192 h
SNU-182 = assay: Cytotoxicity against human SNU-182 cells measured after 8 days; assay type: functional, cell-based; conditions: SNU-182, 192 h
UMUC3 = assay: Cytotoxicity against human UMUC3 cells measured after 8 days; assay type: functional, cell-based; conditions: UMUC3, 192 h
ACHN = assay: Cytotoxicity against human ACHN cells measured after 8 days; assay type: functional, cell-based; conditions: 192 h
RPMI-7951 = assay: Cytotoxicity against human RPMI-7951 cells measured after 8 days; assay type: functional, cell-based; conditions: RPMI-7951, 192 h
[6] = Cytotoxicity against human KP-3 cells measured after 8 days; assay type: functional, cell-based; conditions: KP-3, 192 h
[7] = Cytotoxicity against human 624-mel cells measured after 8 days; assay type: functional, cell-based; conditions: Homo sapiens, 624, 192 h
NCI-H2170 = assay: Cytotoxicity against human NCI-H2170 cells measured after 8 days; assay type: functional, cell-based; conditions: NCI-H2170, 192 h
CaR-1 = assay: Cytotoxicity against human CaR-1 cells measured after 8 days; assay type: functional, cell-based; conditions: CaR-1, 192 h
MDA-MB-435 = assay: Cytotoxicity against human MDA-MB-435 cells measured after 8 days; assay type: functional, cell-based; conditions: MDA-MB-435, 192 h
Rec1 = assay: Cytotoxicity against human REC1 cells measured after 8 days; assay type: functional, cell-based; conditions: Rec1, 192 h
[8] = Cytotoxicity against human JHH-1 cells measured after 8 days; assay type: functional, cell-based; conditions: JHH1, 192 h
[9] = Cytotoxicity against human JHH-2 cells measured after 8 days; assay type: functional, cell-based; conditions: JHH-2, 192 h
G-401 = assay: Cytotoxicity against human G-401 cells measured after 8 days; assay type: functional, cell-based; conditions: G-401, 192 h
[10] = Cytotoxicity against mouse ID8 cells measured after 8 days; assay type: functional, cell-based; conditions: ID8, 192 h
[11] = Cytotoxicity against human HEC-151 cells measured after 8 days; assay type: functional, cell-based; conditions: HEC-151, 192 h
[12] = Cytotoxicity against human KPP14388 LN cells measured after 8 days; assay type: functional, cell-based; conditions: 192 h
DMS-273 = assay: Cytotoxicity against human DMS-273 cells measured after 8 days; assay type: functional, cell-based; conditions: DMS-273, 192 h
MG-63 = assay: Cytotoxicity against human MG-63 cells measured after 8 days; assay type: functional, cell-based; conditions: MG-63, 192 h
[13] = Cytotoxicity against human HCC1534 cells measured after 8 days; assay type: functional, cell-based; conditions: HCC1534, 192 h
MPC-11 = assay: Cytotoxicity against mouse MPC-11 cells measured after 8 days; assay type: functional, cell-based; conditions: MPC-11, 192 h
SUP-B15 = assay: Cytotoxicity against human SUP-B15 cells measured after 8 days; assay type: functional, cell-based; conditions: SUP-B15, 192 h
SU-DHL-5 = assay: Cytotoxicity against human SU-DHL-5 cells measured after 8 days; assay type: functional, cell-based; conditions: SU-DHL-5, 192 h
RPMI-8226 = assay: Cytotoxicity against human RPMI-8226 cells measured after 8 days; assay type: functional, cell-based; conditions: RPMI-8226, 192 h
KMS-12-PE = assay: Cytotoxicity against human KMS-12-PE cells measured after 8 days; assay type: functional, cell-based; conditions: 192 h
SK-MEL-30 = assay: Cytotoxicity against human SK-MEL-30 cells measured after 8 days; assay type: functional, cell-based; conditions: SK-MEL-30, 192 h
[14] = Cytotoxicity against human HEC-116 cells measured after 8 days; assay type: functional, cell-based; conditions: HEC-116, 192 h
[15] = Cytotoxicity against human NCE-G 118 cells measured after 8 days; assay type: functional, cell-based; conditions: NCE-G 118, 192 h
KYSE-150 cell line = assay: Cytotoxicity against human KYSE-150 cell line measured after 8 days; assay type: functional, cell-based; conditions: KYSE-150, 192 h
OV-90 = assay: Cytotoxicity against human OV-90 cells measured after 8 days; assay type: functional, cell-based; conditions: OV-90, 192 h
[16] = Cytotoxicity against human RMUG-S cells measured after 8 days; assay type: functional, cell-based; conditions: 192 h
[17] = Cytotoxicity against human VMRC-RCW cells measured after 8 days; assay type: functional, cell-based; conditions: 192 h
[18] = Cytotoxicity against human FTC-238 cells measured after 8 days; assay type: functional, cell-based; conditions: FTC-238, 192 h
MCF-10A = assay: Cytotoxicity against human MCF-10A cells measured after 8 days; assay type: functional, cell-based; conditions: 192 h
RMG-I = assay: Cytotoxicity against human RMG-I cells measured after 8 days; assay type: functional, cell-based; conditions: 192 h
GB-1 = assay: Cytotoxicity against human GB-1 cells measured after 8 days; assay type: functional, cell-based; conditions: GB-1, 192 h
[19] = Cytotoxicity against human HCC60 cells measured after 8 days; assay type: functional, cell-based; conditions: HCC60, 192 h
[20] = molecular target: GABA-A receptor; alpha-1/beta-2/gamma-2 (Homo sapiens) (UniProt P14867+P47870+P18507); assay: Inhibition of GABA alpha1/beta2/gamma2 (unknown origin) at 1 uM relative to control; assay type: protein-complex assay
NCI-H889 = assay: Cytotoxicity against human NCI-H889 cells measured after 8 days; assay type: functional, cell-based; conditions: NCI-H889, 192 h
C32 = assay: Cytotoxicity against human C32 cells measured after 8 days; assay type: functional, cell-based; conditions: C32, 192 h
[21] = Cytotoxicity against human GOS-3 cells measured after 8 days; assay type: functional, cell-based; conditions: GOS-3, 192 h
MKN-1 = assay: Cytotoxicity against human MKN-1 cells measured after 8 days; assay type: functional, cell-based; conditions: MKN-1, 192 h
[22] = Cytotoxicity against human COLO 858 cells measured after 8 days; assay type: functional, cell-based; conditions: COLO 858, 192 h
C-33-A = assay: Cytotoxicity against human C-33-A cells measured after 8 days; assay type: functional, cell-based; conditions: 192 h
[23] = Cytotoxicity against human KMRC-1 cells measured after 8 days; assay type: functional, cell-based; conditions: KMRC-1, 192 h
[24] = Cytotoxicity against human MOLP8 cells measured after 8 days; assay type: functional, cell-based; conditions: MOLP-8, 192 h
CAL-148 = assay: Cytotoxicity against human CAL-148 cells measured after 8 days; assay type: functional, cell-based; conditions: CAL-148, 192 h

**Q.** What does the source list for `C/C=C/Cn1cc(-c2ccc(C(=O)N3CCOCC3)cc2)c2cc[nH]c2c1=O`?
**A.** pIC50 [1]: 4.70; pIC50 (RT-4): 4.70; pIC50 (KMS-12-BM): 4.86; pIC50 (COLO-680N): 4.70; pIC50 (KALS-1): 4.70; pIC50 [2]: 4.70; pIC50 (8505C): 4.70; pIC50 (OVCAR-8): 4.70; pIC50 (HEC-1B cell line): 4.98; pIC50 [3]: 4.70; pIC50 [4]: 4.70; pIC50 [5]: 4.70; pIC50 (CAPAN-1): 4.70; pIC50 (SNU-182): 4.70; pIC50 (UMUC3): 4.70; pIC50 (ACHN): 4.70; pIC50 (RPMI-7951): 4.70; pIC50 [6]: 4.70; pIC50 [7]: 4.70; pIC50 (NCI-H2170): 4.70; pIC50 (CaR-1): 4.70; pIC50 (MDA-MB-435): 4.70; pIC50 (Rec1): 4.70; pIC50 [8]: 4.70; pIC50 [9]: 4.70; pIC50 (G-401): 4.70; pIC50 [10]: 4.70; pIC50 [11]: 4.70; pIC50 [12]: 4.70; pIC50 (DMS-273): 4.70; pIC50 (MG-63): 4.70; pIC50 [13]: 4.70; pIC50 (MPC-11): 4.97; pIC50 (SUP-B15): 4.70; pIC50 (SU-DHL-5): 4.83; pIC50 (RPMI-8226): 4.70; pIC50 (KMS-12-PE): 4.70; pIC50 (SK-MEL-30): 4.70; pIC50 [14]: 4.70; pIC50 [15]: 4.70; pIC50 (KYSE-150 cell line): 4.70; pIC50 (OV-90): 4.70; pIC50 [16]: 4.70; pIC50 [17]: 4.70; pIC50 [18]: 4.70; pIC50 (MCF-10A): 4.70; pIC50 (RMG-I): 4.71; pIC50 (GB-1): 4.70; pIC50 [19]: 4.70; inhibition [20]: 8%; pIC50 (NCI-H889): 4.70; pIC50 (C32): 4.70; pIC50 [21]: 4.70; pIC50 (MKN-1): 4.70; pIC50 [22]: 4.70; pIC50 (C-33-A): 4.70; pIC50 [23]: 4.70; pIC50 [24]: 4.74; pIC50 (CAL-148): 4.70

**Q.** Which results are given for `C/C=C/Cn1cc(-c2ccc(C(C)(C)O)cc2OC)c2cc[nH]c2c1=O`?
**A.** pIC50 [1]: 4.70; pIC50 (RT-4): 4.70; pIC50 (KMS-12-BM): 4.70; pIC50 (COLO-680N): 4.70; pIC50 (KALS-1): 4.70; pIC50 [2]: 4.70; pIC50 (8505C): 4.70; pIC50 (OVCAR-8): 4.70; pIC50 (HEC-1B cell line): 4.70; pIC50 [3]: 4.81; pIC50 [4]: 4.70; pIC50 [5]: 4.70; pIC50 (CAPAN-1): 4.70; pIC50 (SNU-182): 4.70; pIC50 (UMUC3): 4.70; pIC50 (ACHN): 4.70; pIC50 (RPMI-7951): 4.70; pIC50 [6]: 4.70; pIC50 [7]: 4.70; pIC50 (NCI-H2170): 4.70; pIC50 (CaR-1): 4.70; pIC50 (MDA-MB-435): 4.96; pIC50 (Rec1): 4.78; pIC50 [8]: 4.70; pIC50 [9]: 4.70; pIC50 (G-401): 4.70; pIC50 [10]: 4.70; pIC50 [11]: 4.70; pIC50 [12]: 4.70; pIC50 (DMS-273): 4.70; pIC50 (MG-63): 5.13; pIC50 [13]: 4.70; pIC50 (MPC-11): 4.78; pIC50 (SUP-B15): 4.70; pIC50 (SU-DHL-5): 4.99; pIC50 (RPMI-8226): 4.70; pIC50 (KMS-12-PE): 4.70; pIC50 (SK-MEL-30): 4.70; pIC50 [14]: 4.70; pIC50 [15]: 4.70; pIC50 (KYSE-150 cell line): 4.70; pIC50 (OV-90): 4.70; pIC50 [16]: 4.70; pIC50 [17]: 4.70; pIC50 [18]: 5.02; pIC50 (MCF-10A): 4.94; pIC50 (RMG-I): 4.70; pIC50 (GB-1): 4.70; pIC50 [19]: 4.70; inhibition [20]: 4%; pIC50 (NCI-H889): 4.70; pIC50 (C32): 4.70; pIC50 [21]: 4.70; pIC50 (MKN-1): 4.70; pIC50 [22]: 4.70; pIC50 (C-33-A): 4.70; pIC50 [23]: 4.70; pIC50 [24]: 4.70; pIC50 (CAL-148): 4.70
